For data set [1], the system named is MM1S. The data set can be described thus: inhibition of multiple myeloma cell growth, MM1S cells. The class given is cell-based. The note with it: Homo sapiens, MM1.S. The source says: (§1) FIG. 2 is a schematic showing in vitro biological assays to validate screened compounds for multiple myeloma cells growth via inhibition of p62-zz domain and PKCζ phosphorylation.

For data set [2], the system named is RPMI8266. The data set can be described thus: inhibition of multiple myeloma cell growth, RPMI8266 cells. In kind it is cell-based. Conditions: Homo sapiens.
Description: as §1

Data set [3] has as its system RPMI-8226 human multiple myeloma xenograft. Description: subcutaneous RPMI-8226 human multiple myeloma xenograft model: efficacy and tolerability. In kind it is in vivo. As to the method:
The therapeutic efficacy and tolerability of compound XIELP1-106 (also referred to as 10b) was evaluated in the treatment of subcutaneous RPMI-8226 human multiple myeloma xenograft model. The tumor volumes in the two groups at different time points are shown FIG. 3. The mean tumor volume of the XIELP1-106 vehicle control group reached 1,452 mm3 on day 39 after tumor implantation. The treatment of XIELP1-106 (60 mg/kg, ip, q3d×4 wks) produced a strong antitumor activity with T/C value of 23% (p=0.001).
The median survival time (MST) of the vehicle treated mice was 42 days (FIG. 4).
Background: A xenograft is tissue or cells of one species grown in another, often human tumour cells in immunodeficient mice.

In data set [4] the test system is U266. Description: inhibition of multiple myeloma cell growth, U266 cells. The class given is cell-based. The note with it: Homo sapiens, U-266.
Description: as §1

Structures can show the parent of a compound that is named as a salt.

A word on the IC50: it is the concentration needed to halve the response being measured. Take `Fc1ccc(COc2cc(CNC3CCCCC3)cc(OCc3ccc(F)cc3F)c2)c(F)c1` [XIELP1-60, N-(3,5-bis((2,4-difluorobenzyl)oxy)benzyl)cyclohexanamine]: the figures for the IC50 in data set [1] and in data set [2] were 2.51 µM and 1.33 µM, respectively.

On to `Fc1ccc(COc2ccc(CNC3CCCCC3)cc2OCc2ccc(F)cc2F)c(F)c1` [XIELP1-20a, N-(3,4-bis((2,4-difluorobenzyl)oxy)benzyl)cyclohexanamine], for which the half-maximal inhibitory concentration (IC50) in data set [1] came to 2.53 µM; in data set [2] it was 1.13 µM.

As to `Fc1ccc(COc2ccc(CNCC3CCCCC3)cc2OCc2ccc(F)cc2)cc1` [XIELP1-106, N-(3,4-bis((4-fluorobenzyl)oxy)benzyl)-1-cyclohexylmethanamine Hydrochloride], the IC50 is 2.46 µM in data set [1] and 0.72 µM in data set [2]. Moreover, the “T/C value (antitumor activity)” value in data set [3] (60 mg/kg, ip, q3d×4 wks, tumor volume vs vehicle control, day 39 after tumor implantation, p=0.001) was determined as 23%. Also, the body weight loss in data set [3] (mice, 60 mg/kg ip q3d, after 3 doses, tolerability developed afterwards) worked out at 11.2%. Further, the “other gross clinical abnormality” value in data set [3] (mice, 60 mg/kg ip q3d×4 wks) was “No other gross clinical abnormality was observed”.

`Fc1ccc(COc2ccc(CNC3CCCCC3)cc2OCc2ccc(F)cc2)cc1` [XIELP1-12b, N-(3,4-bis((4-fluorobenzyl)oxy)benzyl)cyclohexanamine]: the results for the IC50 in data set [1] and in data set [2] were 1.77 µM and 1.18 µM, respectively.

With `Cc1ccc(COc2ccc(CNCCO)cc2OCc2ccc(C)cc2)cc1` [XIELP1-24b, 2-((3,4-bis((4-methylbenzyl)oxy)benzyl)amino)ethan-1-ol], the IC50 in data set [1] stood at 2.56 µM; in data set [4] it was 1.21 µM; in data set [2], 0.63 µM.

`Cc1ccc(COc2ccc(CNCC3CCCCC3)cc2OCc2ccc(C)cc2)cc1` [XIELP1-25b]: the IC50 in data set [1] came out at 1.51 µM; in data set [4], 1.26 µM; in data set [2], 0.92 µM.

`Cc1ccc(COc2ccc(CNC3CCCCC3)cc2OCc2ccc(C)cc2)cc1` [XIELP1-51, N-(3,4-bis((4-methylbenzyl)oxy)benzyl)cyclohexanamine]: the IC50 was determined as 5.36 µM in data set [1] and 1.83 µM in data set [2].

`Fc1ccc(COc2cc(CNCC3CCCCC3)cc(OCc3ccc(F)cc3F)c2)c(F)c1` [XIELP1-58, N-(3,5-bis((2,4-difluorobenzyl)oxy)benzyl)-1-cyclohexylmethanamine]: the values for the IC50 in data set [1] and in data set [2] were 2.5 µM and 1.4 µM, respectively.

Consider `Fc1ccc(COc2ccc(CNCC3CCCCC3)cc2OCc2ccc(F)cc2F)c(F)c1` [XIELP1-17b, N-(3,4-bis((2,4-difluorobenzyl)oxy)benzyl)-1-cyclohexylmethanamine], for which the figures for the concentration for half-maximal inhibition (IC50) in data set [1] and in data set [2] were 0.84 µM and 0.94 µM, respectively.

The record behind these values is patent US11560352B2, “P62-ZZ small molecule modulators” (University of Pittsburgh—Of the Commonwealth System of …, priority 2015, dated 2023).
